Legend:
human CB1 receptor = target: T1, human CB1 receptor (Homo sapiens, UniProt P21554); assay: Cannabinoid CB1 receptor binding assay ([3H]-CP-55,940 displacement, SK-N-MC cell membranes); conditions: for inhibition at 0.2 µM: 1.5 h, read-out: Cannabinoid CB1 Receptor Binding, percent inhibition
T1 construct: expressed in transfected cells; host or cells: SK-N-MC cells, stably transfected with pcDNA3 CB-1 (human); semi-purified membrane pellet
Description: (§1) Binding Assay for CB1 or CB2 Agonists or Inverse Agonists
(§2) The human CB1 and CB2 receptors were stably expressed in SK-N-MC cells transfected with pcDNA3 CB-1 (human) or pcDNA3 CB-2 (human). The cells were grown in T-180 cell culture flasks under standard cell culture conditions at 37° C. in a 5% CO2 atmosphere. The cells were harvested by trysinization and homogenized in a homogenization buffer (10 mM Tris, 0.2 mM MgCl2, 5 mM KCl, with protease inhibitors aprotinin, leupeptin, pepstatin A and bacitracin) and centrifuged (2000 g). The supernatant was then centrifuged in 2M sucrose (31,300 g) to produce a semi-purified membrane pellet. The pellet was resuspended in homogenization and stored at −80° C.
(§3) On the day of the assay, the pellet was thawed on ice and diluted in assay buffer (50 mM Tris-HCl, 5 mM MgCl2, 2.5 mM EDTA, 0.5 mg/mL fatty acid free bovine serum albumin, pH 7.5). The diluted membrane pellet was added with buffer, either a test compound or vehicle standard and the radioligand […] (0.2 nM) to the wells of a 96-well polypropylene plate. Non-specific binding was measured in wells containing W1N 55,212 (10 uM). The plate was covered and incubated for 90 minutes at 30° C. The contents were then aspirated onto a Packard Unifilter GF/C filter bottom plate prewet with 0.5% polyethyleneimine. The wells of the polypropylene plate were rinsed and aspirated seven times with a 0.9% saline-0.5% Tween 20 solution. The Unifilter plate was dried, scintillation cocktail was added to each well and the counts representing binding were quantitated in a TopCount scintillation counter.
(§4) For compounds tested, an IC50 binding value was obtained from percent inhibition studies in which various test concentrations were used. The binding value was calculated by linear regression.
(§5) For compounds without an IC50 binding value, the percent inhibition (%) was obtained at a test concentration of 0.2 μM.

human CB2 receptor = target: T2, human CB2 receptor (Homo sapiens, UniProt P34972); assay: Cannabinoid CB2 receptor binding assay ([3H]-CP-55,940 displacement, SK-N-MC cell membranes); conditions: 1.5 h; test concentration of 0.2 μM; radioligand CP-55,940 0.2 nM; read-out: Cannabinoid CB2 Receptor Binding, percent inhibition
T2 construct: expressed in transfected cells; host or cells: SK-N-MC cells, stably transfected with pcDNA3 CB-2 (human); semi-purified membrane pellet
T2 sequence (P34972 whole entry): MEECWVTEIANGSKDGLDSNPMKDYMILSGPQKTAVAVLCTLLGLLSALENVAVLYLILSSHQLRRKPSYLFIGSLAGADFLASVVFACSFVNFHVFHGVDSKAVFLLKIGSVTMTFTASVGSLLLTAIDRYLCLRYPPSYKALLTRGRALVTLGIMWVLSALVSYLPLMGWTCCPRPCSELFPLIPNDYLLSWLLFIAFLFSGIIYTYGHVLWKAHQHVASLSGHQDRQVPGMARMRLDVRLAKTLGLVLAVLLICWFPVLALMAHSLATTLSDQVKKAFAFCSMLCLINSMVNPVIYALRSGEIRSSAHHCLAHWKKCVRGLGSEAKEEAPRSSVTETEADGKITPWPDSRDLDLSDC
Description: as §1, §2, §3, §4, §5

T1 sequence (P21554 whole entry): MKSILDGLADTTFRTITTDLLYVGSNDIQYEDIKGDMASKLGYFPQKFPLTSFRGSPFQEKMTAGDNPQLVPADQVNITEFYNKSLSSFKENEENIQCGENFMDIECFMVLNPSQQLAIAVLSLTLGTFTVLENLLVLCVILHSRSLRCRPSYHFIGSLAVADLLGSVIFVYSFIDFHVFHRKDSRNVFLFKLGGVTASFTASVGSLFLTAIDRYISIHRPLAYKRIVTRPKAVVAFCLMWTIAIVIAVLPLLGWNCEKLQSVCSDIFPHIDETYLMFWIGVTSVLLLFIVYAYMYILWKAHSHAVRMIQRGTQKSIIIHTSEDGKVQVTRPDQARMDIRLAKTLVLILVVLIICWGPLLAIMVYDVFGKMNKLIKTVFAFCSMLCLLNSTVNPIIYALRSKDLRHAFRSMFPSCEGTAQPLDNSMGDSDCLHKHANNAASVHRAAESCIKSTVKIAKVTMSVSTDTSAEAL

For CCc1c(C(=O)N2CCC(O)CC2)nn(-c2ccc(Cl)cc2Cl)c1-c1ccc(Br)s1 [Cpd 50, [5-(5-bromo-thiophen-2-yl)-1-(2,4-dichloro-phenyl)-4-ethyl-1H-pyrazol-3-yl]-(4-hydroxy-piperidin-1-yl)-methanone], the inhibition at 0.2 µM (human CB1 receptor) was 28% and the inhibition at 0.2 µM (human CB2 receptor) was 17%.
With N#Cc1c(C(=O)NN2CCCCC2)nn(-c2ccc(Cl)cc2Cl)c1-c1cccs1 [Cpd 20, 4-cyano-1-(2,4-dichloro-phenyl)-5-thiophen-2-yl-1H-pyrazole-3-carboxylic acid piperidin-1-ylamide] the inhibition at 0.2 µM (human CB1 receptor) was 37% and the inhibition at 0.2 µM (human CB2 receptor) was 9%.
Cc1c(C(=O)N[C@@H](C)c2ccccc2)nn(-c2ccc(Cl)cc2Cl)c1-c1cc(Br)cs1 [Cpd 46, 5-(4-bromo-thiophen-2-yl)-1-(2,4-dichloro-phenyl)-4-methyl-1H-pyrazole-3-carboxylic acid [(1S)-1-phenyl-ethyl]-amide] gave an inhibition at 0.2 µM (human CB1 receptor) of 52% and an inhibition at 0.2 µM (human CB2 receptor) of 47%.
Cc1c(C(=O)N[C@H](C)C2CCCCC2)nn(-c2ccc(Cl)cc2Cl)c1-c1ccc(Cl)s1 [Cpd 13, 5-(5-chloro-thiophen-2-yl)-1-(2,4-dichloro-phenyl)-4-methyl-1H-pyrazole-3-carboxylic acid [(1R)-1-cyclohexyl-ethyl]-amide] was tested, and the IC50 (human CB1 receptor) was 74 nM and the inhibition at 0.2 µM (human CB2 receptor) was 37%.
Cc1c(C(=O)N[C@@H](C)c2ccccn2)nn(-c2ccc(Cl)cc2Cl)c1-c1ccc(F)s1 [Cpd 34, 1-(2,4-dichloro-phenyl)-5-(5-fluoro-thiophen-2-yl)-4-methyl-1H-pyrazole-3-carboxylic acid [(1S)-1-pyridin-2-yl-ethyl]-amide] gave an inhibition at 0.2 µM (human CB1 receptor) of 61% and an inhibition at 0.2 µM (human CB2 receptor) of 34%.
CCc1c(C(=O)N[C@@H](C)c2ccccc2)nn(-c2ccc(Cl)cc2Cl)c1-c1ccc(Br)s1 [Cpd 42, 5-(5-bromo-thiophen-2-yl)-1-(2,4-dichloro-phenyl)-4-ethyl-1H-pyrazole-3-carboxylic acid [(1S)-1-phenyl-ethyl]-amide] was tested, and the IC50 (human CB1 receptor) was 11 nM and the inhibition at 0.2 µM (human CB2 receptor) was 38%.

Source: patent US20070117858A1, “SUBSTITUTED 5-HETEROARYL-1-PHENYL-PYRAZOLE CANNABINOID MODULATORS” (priority 2005, published 2007)
